In patent US20210244735A1, “COMPOSITIONS AND METHODS FOR TREATING MYELOFIBROSIS” (Impact Biomedicines, Inc., priority 2010, published 2021):
Structures can show the parent of a compound that is named as a salt. Where two headings read alike, the source gives them in different places.

Tested on: subjects with MF
Conditions: for discontinuation: adverse event: number of subjects
[1] = at least possibly related, All Subjects (n=59)
[2] = at least possibly related, All Subjects, not transfusion dependent at study entry (n=37)
[3] = at least possibly related, MTD Cohort (n=40)
[4] = at least possibly related, MTD Cohort, not transfusion dependent at study entry (n=24)
[5] = at least possibly related, MTD cohort
[6] = at least possibly related, overall
[7] = number of patients who started at ≥680 mg

Cc1cnc(Nc2ccc(OCCN3CCCC3)cc2)nc1Nc1cccc(S(=O)(=O)NC(C)(C)C)c1 [TG101348, N-tert-butyl-3-[(5-methyl-2-{[4-(2-pyrrolidin-1-ylethoxy)phenyl]amino}pyrimidin-4-yl)amino]benzenesulfonamide dihydrochloride monohydrate]
patients who discontinued treatment due to toxicity (59 patients, median follow-up 12 weeks): 7
subjects with serious adverse events considered at least possibly related (MF-TG101348-001 and -002): 8 subjects
Grades 3/4 asymptomatic increase in ALT (MTD cohort): 8%
Grades 3/4 asymptomatic increase in AST (MTD cohort): 3%
Grades 3/4 asymptomatic increase in alkaline phosphatase (MTD cohort): 0%
Grades 3/4 asymptomatic increase in creatinine (MTD cohort): 0%
Grades 3/4 asymptomatic increase in serum lipase (MTD cohort): 15%
subjects who required dose-reduction during the first 6 cycles (MTD cohort (n=40)): 70%
Anemia: New Transfusion Requirement on Study (MTD subjects not transfusion dependent at baseline (N=24), transfusion on at least 2 occasions for Hb <10 g/dL): 16 (67%) subjects (%)
maximum tolerated dose (MTD) (Phase I, myelofibrosis): 680 mg
Grade 3/4 neutropenia (all patients, Example 1 data): 14 % of patients
Grade 3/4 thrombocytopenia (all patients, Example 1 data): 25 % of patients
Grade 3/4 neutropenia considered related (all subjects): 10%
Grade 3/4 thrombocytopenia considered related (all subjects): 24%
Abdominal pain, Severity Grade 1- [1]: 6 (10.2%) subjects (%)
Abdominal pain, Severity Grade 3-4 [1]: 0 subjects (%)
Alanine aminotransferase increased, Severity Grade 1- [1]: 11 subjects (%)
Alanine aminotransferase increased, Severity Grade 3-4 [1]: 4 (6.8%) subjects (%)
Anorexia, Severity Grade 1- [1]: 8 (13.6%) subjects (%)
Anorexia, Severity Grade 3-4 [1]: 0 subjects (%)
Aspartate aminotransferase increased, Severity Grade 1- [1]: 15 subjects (%)
Aspartate aminotransferase increased, Severity Grade 3-4 [1]: 1 (1.7%) subjects (%)
Blood alkaline phosphatase increased, Severity Grade 1- [1]: 10 subjects (%)
Blood alkaline phosphatase increased, Severity Grade 3-4 [1]: 0 subjects (%)
Blood creatinine increased, Severity Grade 1- [1]: 14 subjects (%)
Blood creatinine increased, Severity Grade 3-4 [1]: 0 subjects (%)
Diarrhea, Severity Grade 1- [1]: 32 subjects (%)
Diarrhea, Severity Grade 3-4 [1]: 6 (10.2%) subjects (%)
Dry skin, Severity Grade 1- [1]: 6 (10.2%) subjects (%)
Dry skin, Severity Grade 3-4 [1]: 0 subjects (%)
Edema peripheral, Severity Grade 1- [1]: 6 (10.2%) subjects (%)
Edema peripheral, Severity Grade 3-4 [1]: 0 subjects (%)
Hyperlipasemia, Severity Grade 1- [1]: 10 subjects (%)
Hyperlipasemia, Severity Grade 3-4 [1]: 6 (10.2%) subjects (%)
Hypocalcemia, Severity Grade 1- [1]: 7 (11.9%) subjects (%)
Hypocalcemia, Severity Grade 3-4 [1]: 1 (1.7%) subjects (%)
Nausea, Severity Grade 1- [1]: 39 subjects (%)
Nausea, Severity Grade 3-4 [1]: 2 (3.4%) subjects (%)
Neutropenia, Severity Grade 1-2 [1]: 2 (3.4%) subjects (%)
Neutropenia, Severity Grade 3-4 [1]: 6 (10.2%) subjects (%)
Skin exfoliation, Severity Grade 1- [1]: 8 (13.6%) subjects (%)
Skin exfoliation, Severity Grade 3-4 [1]: 0 subjects (%)
Thrombocytopenia, Severity Grade 1-2 [1]: 10 (17.0%) subjects (%)
Thrombocytopenia, Severity Grade 3-4 [1]: 14 (23.7%) subjects (%)
Vomiting, Severity Grade 1- [1]: 32 subjects (%)
Vomiting, Severity Grade 3-4 [1]: 2 (3.4%) subjects (%)
Anemia, Severity Grade 1-2 [2]: 3 (8.1%) subjects (%)
Anemia, Severity Grade 3-4 [2]: 13 (35.1%) subjects (%)
Abdominal pain, Severity Grade 1-2 [3]: 4 (10.0%) subjects (%)
Abdominal pain, Severity Grade 3- [3]: 0 subjects (%)
Alanine aminotransferase increased, Severity Grade 1-2 [3]: 9 (22.5%) subjects (%)
Alanine aminotransferase increased, Severity Grade 3- [3]: 3 (7.5%) subjects (%)
Anorexia, Severity Grade 1-2 [3]: 6 (15.0%) subjects (%)
Anorexia, Severity Grade 3- [3]: 0 subjects (%)
Aspartate aminotransferase increased, Severity Grade 1-2 [3]: 13 subjects (%)
Aspartate aminotransferase increased, Severity Grade 3- [3]: 1 (2.5%) subjects (%)
Blood alkaline phosphatase increased, Severity Grade 1-2 [3]: 9 (22.5%) subjects (%)
Blood alkaline phosphatase increased, Severity Grade 3- [3]: 0 subjects (%)
Blood creatinine increased, Severity Grade 1-2 [3]: 11 subjects (%)
Blood creatinine increased, Severity Grade 3- [3]: 0 subjects (%)
Diarrhea, Severity Grade 1-2 [3]: 25 subjects (%)
Diarrhea, Severity Grade 3- [3]: 5 subjects (%)
Dry skin, Severity Grade 1-2 [3]: 6 (15%) subjects (%)
Dry skin, Severity Grade 3- [3]: 0 subjects (%)
Edema peripheral, Severity Grade 1-2 [3]: 4 (10.0%) subjects (%)
Edema peripheral, Severity Grade 3- [3]: 0 subjects (%)
Hyperlipasemia, Severity Grade 1-2 [3]: 9 (22.5%) subjects (%)
Hyperlipasemia, Severity Grade 3- [3]: 6 subjects (%)
Hypocalcemia, Severity Grade 1-2 [3]: 6 (15.0%) subjects (%)
Hypocalcemia, Severity Grade 3- [3]: 1 (2.5%) subjects (%)
Nausea, Severity Grade 1-2 [3]: 31 subjects (%)
Nausea, Severity Grade 3- [3]: 2 (5.0%) subjects (%)
Neutropenia, Severity Grade 1-2 [3]: 2 (5.0%) subjects (%)
Neutropenia, Severity Grade 3-4 [3]: 4 (10.0%) subjects (%)
Skin exfoliation, Severity Grade 1-2 [3]: 8 (20.0%) subjects (%)
Skin exfoliation, Severity Grade 3- [3]: 0 subjects (%)
Thrombocytopenia, Severity Grade 1-2 [3]: 8 (20.0%) subjects (%)
Thrombocytopenia, Severity Grade 3-4 [3]: 11 (27.5%) subjects (%)
Vomiting, Severity Grade 1-2 [3]: 27 subjects (%)
Vomiting, Severity Grade 3- [3]: 1 (2.5%) subjects (%)
Anemia, Severity Grade 1-2 [4]: 2 (8.3%) subjects (%)
Anemia, Severity Grade 3-4 [4]: 13 (54.2%) subjects (%)
grade 3 diarrhea [5]: 13 % of subjects
grade 3 nausea [5]: 5 % of subjects
grade 3 vomiting [5]: 3 % of subjects
grade 3 diarrhea [6]: 10 % of subjects
grade 3 nausea [6]: 3 % of subjects
grade 3 vomiting [6]: 3 % of subjects
subjects discontinued because of adverse events (extension study, 43 subjects, after 24 to 46 weeks on therapy): 3
subjects discontinued for treatment-related adverse events (first 6 cycles of therapy, 59 subjects): 6
diarrhea Gr3 [7]: 3
nausea Gr3 [7]: 1
vomiting Gr3 [7]: 1
discontinuation: adverse event (MTD (initiated at 680 or 800 mg/day), 40 enrolled): 5
discontinuation: adverse event (Overall, 59 enrolled): 6
Grade 3/4 anemia considered related (of 37 subjects who were not transfusion dependent at baseline): 35%
maximum tolerated dose (MTD) (oral once daily, dose cohorts 30 to 800 mg per day): 680 mg/day
Grades 3/4 asymptomatic increase in ALT (overall): 7%
Grades 3/4 asymptomatic increase in AST (overall): 2%
Grades 3/4 asymptomatic increase in alkaline phosphatase (overall): 0%
